{"source": "paper PMC4940876", "about": "“Post-paralysis tyrosine kinase inhibition with masitinib abrogates neuroinflammation and slows disease progression in inherited amyotrophic lateral sclerosis” (Journal of Neuroinflammation, 2016)", "target": "T1, CSF-1R (colony-stimulating factor 1 receptor) (Homo sapiens, UniProt P07333)", "T1 construct": "gene CSF1R; CSF-1R kinase domain (AA 538–972), N-terminus 6HN-tagged, expressed in Sf21 cells", "T1 sequence (P07333 538-972)": "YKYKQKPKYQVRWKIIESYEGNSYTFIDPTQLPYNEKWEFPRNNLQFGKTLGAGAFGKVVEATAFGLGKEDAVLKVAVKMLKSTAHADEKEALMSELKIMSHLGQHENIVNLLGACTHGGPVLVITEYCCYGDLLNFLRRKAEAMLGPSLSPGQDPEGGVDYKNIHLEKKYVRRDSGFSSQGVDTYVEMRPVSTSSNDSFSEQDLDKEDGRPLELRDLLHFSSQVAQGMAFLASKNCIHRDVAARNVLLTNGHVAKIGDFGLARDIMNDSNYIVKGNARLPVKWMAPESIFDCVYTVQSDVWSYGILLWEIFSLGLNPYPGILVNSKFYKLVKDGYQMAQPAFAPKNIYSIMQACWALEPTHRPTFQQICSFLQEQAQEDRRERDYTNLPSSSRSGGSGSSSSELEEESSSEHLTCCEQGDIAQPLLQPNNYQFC", "experiment": "HTRF KinEASE kinase assay with biotinylated poly(Glu4Tyr) peptide, […] ATP", "format": "biochemical"}
{"smiles": "Cc1ccc(NC(=O)c2ccc(CN3CCN(C)CC3)cc2)cc1Nc1nc(-c2cccnc2)cs1", "note": "[masitinib]", "values": [{"measurement": "IC50", "value": "90 ± 35", "unit": "nM"}]}
